Values joined by “and” are separate entries in the source; they are usually repeats but may differ in a detail not shown here. Identical values can stand only once. Like-named read-outs stand apart in the source and are kept apart here.
Assays:
[1] = system: tbaqp1-2-3 null cells expressing TbAQP2 position 84, 118 and 218 Trp and Met mutants; test: Drug sensitivity assay (resazurin), pentamidine and SHAM; format: cell-based, Trypanosoma brucei brucei
[2] = system: tbaqp1-2-3 null cells; test: as above; format: cell-based, Trypanosoma brucei brucei; details: KO AQP1-3
[3] = system: tbaqp1-2-3 null cells expressing TbAQP2WT; test: as above; format: cell-based, Trypanosoma brucei brucei; details: +AQP2 W.T in KO AQP1-3
[4] = molecular target: TbAQP2/HAPT1 (Trypanosoma brucei brucei, UniProt Q6ZXT3); test: cell-based; format: cell-based
Chain of TbAQP2/HAPT1 (Q6ZXT3 whole entry): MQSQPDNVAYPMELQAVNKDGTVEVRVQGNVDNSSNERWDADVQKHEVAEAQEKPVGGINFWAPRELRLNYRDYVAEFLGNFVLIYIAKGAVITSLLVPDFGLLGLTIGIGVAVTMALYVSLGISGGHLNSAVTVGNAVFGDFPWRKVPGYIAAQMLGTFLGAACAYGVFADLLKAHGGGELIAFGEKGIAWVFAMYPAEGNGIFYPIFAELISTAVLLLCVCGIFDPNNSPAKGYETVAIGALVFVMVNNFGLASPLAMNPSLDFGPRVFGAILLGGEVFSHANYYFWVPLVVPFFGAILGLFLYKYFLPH

[5] = system: tbaqp2/tbaqp3 null cells; test: microbe, parasite or virus in culture; format: cell-based, Trypanosoma brucei brucei; details: for EC50: Trypanosoma brucei
[6] = system: tbaqp2 null (AQP2-KO); test: Drug sensitivity assay (resazurin); format: cell-based; details: Trypanosoma brucei
[7] = system: T. b. brucei 2T1; test: Drug sensitivity assay (resazurin); format: cell-based; details: Trypanosoma brucei
Experimental: The tbaqp2/tbaqp3 null cells ([Baker et al., 2012]) and tbaqp1-2-3 null cells ([Jeacock et al., 2017]) (both obtained from David Horn, University of Dundee, UK) are derived from the 2T1 strain of T. b. brucei ([Alsford and Horn, 2008]). The CRK12 RNAi cell line^28 was obtained from Dr Tansy Hammarton (University of Glasgow, UK) and is also based on the 2T1 cell line; RNAi expression was induced with 1 µg/ml tetracycline in the medium. All experiments were performed with bloodstream form trypanosomes grown in vitro in HMI-11 medium as described ([Wallace et al., 2002]) at 37°C in a 5% CO2 atmosphere. Cultures were routinely maintained in 10 ml of this medium, being seeded at 5 × 10^4 cells/ml and passed to fresh medium at reaching approximately 3 × 10^6 cells/ml after 48 hr. For transport experiments 150 or 200 ml of culture was seeded at the same density in large flasks and incubated until the culture reached late-log phase.
Drug sensitivity assays for T. b. brucei bloodstream forms used the cell viability dye resazurin (Sigma) and were performed exactly as described ([Wallace et al., 2002]; [Bridges et al., 2007]) in 96-well plates with doubling dilutions of test compound, starting at 100 µM, over 2 rows of the plate (23 dilutions plus no-drug control). Incubation time with test compound was 48 hr (37°C/5% CO2), followed by an additional 24 hr in the presence of the dye.

[8] = system: TbAQP2 expressed in tbaqp2 null; test: Drug sensitivity assay (resazurin); format: cell-based; details: Trypanosoma brucei
[9] = system: tbaqp2/tbaqp3 null cells expressing TbAQP2^I110W/L264R; format: cell-based, Trypanosoma brucei brucei
[10] = system: tbaqp2/tbaqp3 null cells expressing TbAQP2 L218W; test: microbe, parasite or virus in culture; format: cell-based, Trypanosoma brucei brucei
[11] = system: tbaqp2/tbaqp3 null cells expressing TbAQP2 L118W; test: microbe, parasite or virus in culture; format: cell-based, Trypanosoma brucei brucei
[12] = system: tbaqp2/tbaqp3 null cells expressing TbAQP2^L258Y; format: cell-based, Trypanosoma brucei brucei
[13] = system: tbaqp2/tbaqp3 null cells expressing TbAQP2WT; test: microbe, parasite or virus in culture; format: cell-based, Trypanosoma brucei brucei; details: for EC50: Trypanosoma brucei
[14] = system: tbaqp2/tbaqp3 null cells expressing TbAQP2^I110W; format: cell-based, Trypanosoma brucei brucei
[15] = system: tbaqp2/tbaqp3 null cells expressing TbAQP2^S131P/S263A; format: cell-based, Trypanosoma brucei brucei
[16] = system: tbaqp2/tbaqp3 null cells expressing TbAQP2 L118M; test: microbe, parasite or virus in culture; format: cell-based, Trypanosoma brucei brucei
[17] = system: tbaqp2/tbaqp3 null cells expressing TbAQP2^L264R; format: cell-based, Trypanosoma brucei brucei
[18] = system: tbaqp2/tbaqp3 null cells expressing TbAQP2 L218M; test: microbe, parasite or virus in culture; format: cell-based, Trypanosoma brucei brucei
[19] = system: tbaqp2/tbaqp3 null cells expressing TbAQP2 L84M; test: microbe, parasite or virus in culture; format: cell-based, Trypanosoma brucei brucei
[20] = system: tbaqp2/tbaqp3 null cells expressing TbAQP2 L84W; test: microbe, parasite or virus in culture; format: cell-based, Trypanosoma brucei brucei
[21] = 3 repeats, read-out: EC50, MEAN
[22] = read-out: EC50 AQP2-KO AVG, AQP2-KO / tbaqp2 null, 48 h drug + 24 h resazurin
[23] = 48 h drug + 24 h resazurin, read-out: EC50 control 2T1 AVG
[24] = Trypanosoma brucei, read-out: EC50, MEAN
[25] = Trypanosoma brucei, read-out: EC50, single repeats
[26] = Trypanosoma brucei, read-out: EC50, MEAN (nM)

SMILES: O=C(NO)c1ccccc1O [SHAM]
- EC50 ([1]; +L84M in KO AQP1-3, 3 repeats, read-out: EC50, MEAN): 18.1 µM
- EC50 ([1]; +L84M in KO AQP1-3, read-out: EC50, single repeats): 17.6 µM and 17.7 µM and 19.1 µM
- EC50 ([1]; +L84W in KO AQP1-3, 3 repeats, read-out: EC50, MEAN): 13.2 µM
- EC50 ([1]; +L84W in KO AQP1-3, read-out: EC50, single repeats): 11.3 µM and 13.7 µM and 14.6 µM
- EC50 ([1]; +L84W/L118W in KO AQP1-3, 3 repeats, read-out: EC50, MEAN): 12.2 µM
- EC50 ([1]; +L84W/L118W in KO AQP1-3, read-out: EC50, single repeats): 11.7 µM and 12.3 µM and 12.6 µM
- EC50 ([1]; +L118M in KO AQP1-3, 3 repeats, read-out: EC50, MEAN): 11.5 µM
- EC50 ([1]; +L118M in KO AQP1-3, read-out: EC50, single repeats): 10.9 µM and 12.3 µM and 11.4 µM
- EC50 ([1]; +L118W in KO AQP1-3, 3 repeats, read-out: EC50, MEAN): 10.8 µM
- EC50 ([1]; +L118W in KO AQP1-3, read-out: EC50, single repeats): 10.4 µM and 11.1 µM and 10.9 µM
- EC50 ([1]; +L218M in KO AQP1-3, 3 repeats, read-out: EC50, MEAN): 15.2 µM
- EC50 ([1]; +L218M in KO AQP1-3, read-out: EC50, single repeats): 15.8 µM and 12.7 µM and 17.1 µM
- EC50 ([1]; +L218W in KO AQP1-3, 3 repeats, read-out: EC50, MEAN): 15.9 µM
- EC50 ([1]; +L218W in KO AQP1-3, read-out: EC50, single repeats): 14.7 µM and 16.3 µM and 16.9 µM
- EC50 [2, 21]: 7.9 µM
- EC50 ([2]; read-out: EC50, single repeats): 7.38 µM and 7.93 µM and 8.39 µM
- EC50 [3, 21]: 18.6 µM
- EC50 ([3]; read-out: EC50, single repeats): 18.5 µM and 18.1 µM and 19.2 µM

SMILES: CC[n+]1c(-c2ccccc2)c2cc(N/N=N/c3cccc(C(=N)N)c3)ccc2c2ccc(N)cc21 [Isometamidium]
- ΔG0 [4]: -7.43 kcal/mol
- δ(ΔG0) [4]: 2.72 kcal/mol
- Ki ([4]; HAPT Ki, AVG): 3.54 µM
- Ki ([4]; Ki): 3.5 µM
- EC50 [5]: 95 ± 12 nM
- EC50 [6, 22]: 0.103 µM
- EC50 ([6]; tbaqp2 null, read-out: EC50): 0.103 ± 0.014 µM
- EC50 [7, 23]: 0.112 µM
- EC50 ([7]; read-out: EC50): 0.112 ± 0.012 µM
- EC50 [8]: 0.098 ± 0.024 µM

SMILES: CC[n+]1c(-c2ccccc2)c2cc(N)ccc2c2ccc(N)cc21 [Ethidium]
- ΔG0 [4]: -5.47 kcal/mol
- δ(ΔG0) [4]: 4.71 kcal/mol
- Ki ([4]; Ki): 97 µM
- EC50 [5]: 1380 ± 140 nM
- EC50 [6, 22]: 1.39 µM
- EC50 [7, 23]: 1.32 µM
- EC50 [8]: 1.35 ± 0.11 µM

SMILES: N=C(N)c1ccc(/N=N/Nc2ccc(C(=N)N)cc2)cc1 [Diminazene]
- EC50 as percent of AQP2/3 null EC50, MEAN [9]: 108.15%
- EC50 (% of aqp2/aqp3 null), MEAN [10]: 38.99 % of aqp2/aqp3 null
- Sensitisation relative to tbaqp2/tbaqp3 null [10]: ~ 2 fold
- EC50 [10, 24]: 0.0296 µM
- EC50 (% of aqp2/aqp3 null), MEAN [11]: 95.82 % of aqp2/aqp3 null
- EC50 (% of aqp2/aqp3 null), single repeats [11]: 118.42 % of aqp2/aqp3 null and 101.85 % of aqp2/aqp3 null and 67.18 % of aqp2/aqp3 null
- EC50 [11, 24]: 0.0728 µM
- EC50 [11, 25]: 0.09 µM
- EC50 ([11]; read-out: EC50, single repeats): 0.0774 µM and 0.0511 µM
- EC50, percent of AQP2/3 null EC50 [12]: 105.69%
- EC50 (% of aqp2/aqp3 null), MEAN [13]: 97.55 % of aqp2/aqp3 null
- EC50, MEAN (% KO) [13]: 98.90 % KO
- EC50, percent of AQP2/3 null EC50 [13]: 96.75% and 102.22% and 102.99% and 78.60%
- EC50 as percent of AQP2/3 null EC50, MEAN [13]: 102.99%
- EC50 ([13]; read-out: EC50, MEAN): 74.2 nM
- EC50 ([13]; read-out: EC50, MEAN (nM)): 149 nM
- ΔG0 [4]: -5.74 kcal/mol
- δ(ΔG0) [4]: 4.45 kcal/mol
- Ki ([4]; HAPT Ki, AVG): 62.5 µM
- Ki ([4]; Ki): 63 µM
- EC50, percent of AQP2/3 null EC50 [14]: 114.65%
- EC50, percent of AQP2/3 null EC50 [15]: 93.48%
- EC50 (% of aqp2/aqp3 null), MEAN [5]: 100.00 % of aqp2/aqp3 null
- EC50, MEAN (% KO) [5]: 100.00 % KO
- EC50, percent of AQP2/3 null EC50 [5]: 100.00%
- EC50 as percent of AQP2/3 null EC50, MEAN [5]: 100.00%
- EC50 as percent of AQP2/3 null EC50, single repeats [5]: 100%
- EC50 ([5]; read-out: EC50, MEAN): 76 nM
- EC50 ([5]; read-out: EC50, MEAN (nM)): 175 nM
- EC50, MEAN (% KO) [16]: 93.77 % KO
- EC50 [16, 26]: 177 nM
- EC50, percent of AQP2/3 null EC50 [17]: 99.35%
- EC50 [6, 22]: 0.108 µM
- EC50 [7, 23]: 0.122 µM
- EC50, MEAN (% KO) [18]: 48.28 % KO
- Sensitisation relative to tbaqp2/tbaqp3 null [18]: ~ 2 fold
- EC50 [18, 26]: 54 nM
- EC50 [18, 25]: 38.7 nM
- EC50 ([18]; read-out: EC50, single repeats): 61.5 nM and 61.9 nM and 39.1 nM and 34.8 nM and 41.6 nM
- EC50, MEAN (% KO) [19]: 99.61 % KO
- EC50 [19, 26]: 145 nM
- EC50 (% of aqp2/aqp3 null), MEAN [20]: 113.28 % of aqp2/aqp3 null
- EC50 (% of aqp2/aqp3 null), single repeats [20]: 126.86 % of aqp2/aqp3 null and 125.65 % of aqp2/aqp3 null and 87.33 % of aqp2/aqp3 null
- EC50 [20, 24]: 0.0861 µM
- EC50 [20, 25]: 0.0964 µM
- EC50 ([20]; read-out: EC50, single repeats): 0.0955 µM and 0.0664 µM
